In ChEMBL document CHEMBL1201862, “PubChem BioAssay data set” (2004) one finds EC50 and CC50 data, which are given here for one compound.

Common to all, as to type: functional
One test has as its target T1, Hexokinase-1 (Homo sapiens, UniProt P19367).
T1 sequence (P19367 whole entry): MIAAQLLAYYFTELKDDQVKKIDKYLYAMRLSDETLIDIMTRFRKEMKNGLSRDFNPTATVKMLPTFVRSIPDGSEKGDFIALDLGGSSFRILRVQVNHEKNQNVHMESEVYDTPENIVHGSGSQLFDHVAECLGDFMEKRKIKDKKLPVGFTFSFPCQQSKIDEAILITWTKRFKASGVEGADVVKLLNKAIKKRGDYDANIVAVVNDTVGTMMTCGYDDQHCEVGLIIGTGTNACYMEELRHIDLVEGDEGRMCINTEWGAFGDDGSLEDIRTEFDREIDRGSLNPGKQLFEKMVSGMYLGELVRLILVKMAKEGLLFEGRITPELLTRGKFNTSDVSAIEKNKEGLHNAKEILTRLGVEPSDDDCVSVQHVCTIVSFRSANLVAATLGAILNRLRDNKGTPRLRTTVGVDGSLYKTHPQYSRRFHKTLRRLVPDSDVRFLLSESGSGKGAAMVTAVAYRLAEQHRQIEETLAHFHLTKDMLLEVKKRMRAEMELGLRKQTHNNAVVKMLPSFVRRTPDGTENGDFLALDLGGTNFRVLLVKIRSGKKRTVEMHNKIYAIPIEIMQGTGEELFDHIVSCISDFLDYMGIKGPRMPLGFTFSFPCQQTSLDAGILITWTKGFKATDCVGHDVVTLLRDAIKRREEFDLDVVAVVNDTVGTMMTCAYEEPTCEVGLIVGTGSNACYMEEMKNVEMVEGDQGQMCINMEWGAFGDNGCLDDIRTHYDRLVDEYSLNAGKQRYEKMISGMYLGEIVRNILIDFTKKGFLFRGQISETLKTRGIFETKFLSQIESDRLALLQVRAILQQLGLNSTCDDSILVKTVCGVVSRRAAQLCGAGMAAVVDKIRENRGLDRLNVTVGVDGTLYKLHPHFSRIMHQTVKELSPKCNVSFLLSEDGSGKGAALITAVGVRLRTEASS
In words: hexokinase 1 activators, dose response, selectivity assay for HKDC1 activator project, biochemical (AID 504762).

The next test concerns the target T2, Hexokinase HKDC1 (Homo sapiens, UniProt Q2TB90).
T2 sequence (Q2TB90 whole entry): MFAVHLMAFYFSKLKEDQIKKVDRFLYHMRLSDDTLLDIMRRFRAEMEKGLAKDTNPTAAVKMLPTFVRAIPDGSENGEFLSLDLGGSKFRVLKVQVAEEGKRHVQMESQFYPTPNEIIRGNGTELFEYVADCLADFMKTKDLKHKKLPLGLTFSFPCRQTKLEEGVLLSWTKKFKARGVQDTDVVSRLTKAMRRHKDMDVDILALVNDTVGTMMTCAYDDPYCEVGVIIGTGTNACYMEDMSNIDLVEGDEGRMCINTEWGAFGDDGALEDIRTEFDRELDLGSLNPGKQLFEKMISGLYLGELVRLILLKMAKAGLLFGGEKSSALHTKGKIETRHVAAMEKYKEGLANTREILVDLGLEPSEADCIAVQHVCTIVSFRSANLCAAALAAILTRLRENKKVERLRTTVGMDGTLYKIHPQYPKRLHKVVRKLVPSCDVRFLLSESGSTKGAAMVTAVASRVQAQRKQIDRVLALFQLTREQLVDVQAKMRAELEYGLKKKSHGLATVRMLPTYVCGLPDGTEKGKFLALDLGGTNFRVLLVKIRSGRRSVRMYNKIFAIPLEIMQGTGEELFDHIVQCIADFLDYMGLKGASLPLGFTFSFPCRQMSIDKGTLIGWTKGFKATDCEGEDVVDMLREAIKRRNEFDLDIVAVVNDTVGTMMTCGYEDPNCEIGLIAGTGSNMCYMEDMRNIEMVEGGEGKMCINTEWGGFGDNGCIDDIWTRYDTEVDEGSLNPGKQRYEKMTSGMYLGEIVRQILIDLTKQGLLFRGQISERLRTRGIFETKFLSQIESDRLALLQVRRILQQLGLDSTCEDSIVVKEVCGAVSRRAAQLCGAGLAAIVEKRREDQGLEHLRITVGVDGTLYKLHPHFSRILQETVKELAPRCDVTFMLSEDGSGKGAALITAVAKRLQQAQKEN
In words: HKDC1 hexokinase activators, dose response, biochemical, W721R variant (AID 504730).

The nature of test [1]: THP-1 cell cytotoxicity, dose response, cytotoxicity control for non-replicating M. tuberculosis project (AID 489025).

Active and inactive are the calls of the source. Rule as the data show it, for most assays here: active = EC50 of 20 µM or less and inactive = more.

One may read the EC50 as the concentration needed to bring the measured effect to its halfway point. Broadly, the CC50 is the concentration that lowers cell viability or growth by half. On to `Clc1ccc(/N=c2\ssnc2Cl)nc1`, for which the EC50 at Hexokinase-1 is 65.4 µM (inactive); at Hexokinase HKDC1, 50.3 µM (inactive). For the same compound, the CC50 in test [1] was 17.5 µM (active).
